Assay results from patent US20230148214A1, “INDAZOLES AND AZAINDAZOLES AS LRRK2 INHIBITORS” (ESCAPE Bio, Inc., priority 2020, published 2023).
pIC50: −log10 of the molar value.

Assays:
[1] = target: T1, LRRK2 G2019S (Homo sapiens, UniProt Q5S007, G2019S); assay: LRRK2 Kinase Activity Assay (LanthaScreen TR-FRET), G2019S; format: biochemical; conditions: recombinant G2019S-LRRK2, 25 μM ATP, 400 nM LRRKtide, 60 min; class symbols
T1 construct: purchased Life Technologies PV4881
Summary of the method: (§1)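 Recombinant wild-type or G2019S LRRK2 incubated with fluorescein-labeled LRRKtide (ERM-based) peptide, ATP and serially diluted compound for 60 min at room temperature.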

[2] = target: T2, LRRK2 WT (Homo sapiens, UniProt Q5S007); assay: LRRK2 Kinase Activity Assay (LanthaScreen TR-FRET), wild type; format: biochemical; conditions: recombinant wild type LRRK2, 25 μM ATP, 400 nM LRRKtide, 60 min; class symbols
T2 construct: purchased Life Technologies PR8604B
T2 sequence (Q5S007 whole entry): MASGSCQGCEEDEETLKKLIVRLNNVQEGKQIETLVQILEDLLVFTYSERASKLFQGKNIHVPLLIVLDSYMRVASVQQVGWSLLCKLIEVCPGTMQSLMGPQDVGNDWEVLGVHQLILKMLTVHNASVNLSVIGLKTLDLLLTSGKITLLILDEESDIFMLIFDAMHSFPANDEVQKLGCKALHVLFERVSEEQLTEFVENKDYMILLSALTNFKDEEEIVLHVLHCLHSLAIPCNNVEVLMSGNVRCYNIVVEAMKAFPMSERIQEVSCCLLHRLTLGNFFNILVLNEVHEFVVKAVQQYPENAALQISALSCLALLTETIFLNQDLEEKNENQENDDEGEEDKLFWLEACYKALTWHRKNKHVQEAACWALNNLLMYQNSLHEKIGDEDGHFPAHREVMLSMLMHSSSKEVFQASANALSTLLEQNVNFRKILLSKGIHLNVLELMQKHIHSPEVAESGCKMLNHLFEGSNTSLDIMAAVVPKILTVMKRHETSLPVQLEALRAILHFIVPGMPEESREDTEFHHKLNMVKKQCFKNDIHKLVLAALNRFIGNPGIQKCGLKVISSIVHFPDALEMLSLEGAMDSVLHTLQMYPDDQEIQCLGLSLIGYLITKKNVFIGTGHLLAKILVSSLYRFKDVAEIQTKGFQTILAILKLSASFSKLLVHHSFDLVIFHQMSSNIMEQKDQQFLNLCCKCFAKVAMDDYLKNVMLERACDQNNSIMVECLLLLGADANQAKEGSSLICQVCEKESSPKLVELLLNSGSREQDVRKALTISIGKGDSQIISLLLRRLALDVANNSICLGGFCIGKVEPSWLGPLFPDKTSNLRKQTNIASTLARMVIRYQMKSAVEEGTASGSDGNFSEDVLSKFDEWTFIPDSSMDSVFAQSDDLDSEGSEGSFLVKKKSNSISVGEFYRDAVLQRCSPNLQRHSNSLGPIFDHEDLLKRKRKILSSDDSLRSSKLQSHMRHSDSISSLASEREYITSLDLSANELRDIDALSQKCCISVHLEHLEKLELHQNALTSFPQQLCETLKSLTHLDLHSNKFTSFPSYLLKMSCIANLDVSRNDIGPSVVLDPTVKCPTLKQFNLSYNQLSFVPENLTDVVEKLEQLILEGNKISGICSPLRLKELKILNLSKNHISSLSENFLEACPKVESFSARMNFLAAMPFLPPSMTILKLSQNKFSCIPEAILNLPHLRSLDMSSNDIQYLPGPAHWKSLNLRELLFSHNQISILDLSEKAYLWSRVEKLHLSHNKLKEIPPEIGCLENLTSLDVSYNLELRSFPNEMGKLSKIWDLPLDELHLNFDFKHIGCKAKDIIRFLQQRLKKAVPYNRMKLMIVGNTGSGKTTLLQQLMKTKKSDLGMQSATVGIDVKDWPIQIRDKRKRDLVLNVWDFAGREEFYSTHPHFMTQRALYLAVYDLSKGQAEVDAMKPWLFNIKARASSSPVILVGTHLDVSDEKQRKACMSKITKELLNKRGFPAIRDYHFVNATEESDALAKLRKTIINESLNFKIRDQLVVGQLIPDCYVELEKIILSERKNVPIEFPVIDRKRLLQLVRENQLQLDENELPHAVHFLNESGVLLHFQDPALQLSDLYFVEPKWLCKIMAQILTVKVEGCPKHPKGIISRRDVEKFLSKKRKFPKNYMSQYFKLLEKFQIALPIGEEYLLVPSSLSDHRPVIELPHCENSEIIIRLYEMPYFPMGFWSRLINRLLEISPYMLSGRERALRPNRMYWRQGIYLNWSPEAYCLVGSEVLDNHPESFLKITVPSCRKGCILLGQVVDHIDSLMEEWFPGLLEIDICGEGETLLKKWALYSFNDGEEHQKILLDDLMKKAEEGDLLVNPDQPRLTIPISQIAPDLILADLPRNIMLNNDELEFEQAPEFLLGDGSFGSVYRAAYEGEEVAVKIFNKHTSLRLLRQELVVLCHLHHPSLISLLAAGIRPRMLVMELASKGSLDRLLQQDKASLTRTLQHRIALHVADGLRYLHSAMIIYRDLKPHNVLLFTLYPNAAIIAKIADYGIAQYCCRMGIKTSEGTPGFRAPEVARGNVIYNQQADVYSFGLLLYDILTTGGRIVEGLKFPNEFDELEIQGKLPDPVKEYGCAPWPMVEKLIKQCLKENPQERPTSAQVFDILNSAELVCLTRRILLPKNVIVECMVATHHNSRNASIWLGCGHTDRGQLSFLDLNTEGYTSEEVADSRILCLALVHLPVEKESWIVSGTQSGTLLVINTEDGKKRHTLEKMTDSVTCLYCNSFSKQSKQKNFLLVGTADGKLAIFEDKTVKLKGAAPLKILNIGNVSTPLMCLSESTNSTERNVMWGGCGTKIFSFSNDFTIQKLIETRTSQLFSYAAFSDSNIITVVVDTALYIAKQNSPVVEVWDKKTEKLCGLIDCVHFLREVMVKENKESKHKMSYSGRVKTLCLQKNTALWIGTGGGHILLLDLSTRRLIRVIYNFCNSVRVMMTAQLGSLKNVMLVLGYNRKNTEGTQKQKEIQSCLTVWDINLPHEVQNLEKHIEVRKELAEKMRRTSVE
Summary of the method: as §1

T1 sequence (Q5S007 whole entry G2019S): as the sequence (Q5S007 whole entry) above, with G2019S counted along it

| Compound | pIC50 [1] | pIC50 [2] |
| --- | --- | --- |
| N#Cc1cnc2c(c1)OCC[C@@H]2Nc1ccc2[nH]nc(-c3cnco3)c2c1 (single isomer, unassigned) [194, enantiomer 2, 4-((3-(Oxazol-5-yl)-1H-indazol-5-yl)amino)-3,4-dihydro-2H-pyrano[3,2-b]pyridine-7-carbonitrile] | 6.00 to 7.00 | 6.00 to 7.00 |
| Cc1n[nH]c2ccc(O[C@H]3CCc4cc(C#N)ccc43)cc12 (single isomer, unassigned) [Example 1, enantiomer 1, 1-((3-Methyl-1H-indazol-5-yl)oxy)-2,3-dihydro-1H-indene-5-carbonitrile] | > 7.00 | 6.00 to 7.00 |
| Cc1n[nH]c2ccc(O[C@H]3CCc4cc(C#N)ccc43)cc12 (single isomer, unassigned) [Example 1, enantiomer 2, 1-((3-Methyl-1H-indazol-5-yl)oxy)-2,3-dihydro-1H-indene-5-carbonitrile] | > 7.00 | 6.00 to 7.00 |
| N#Cc1cnc2c(c1)CCC[C@@H]2Oc1ccc2[nH]nc(-c3cnoc3)c2c1 (single isomer, unassigned) [Example 2, enantiomer 1, 8-((3-(Isoxazol-4-yl)-1H-indazol-5-yl)oxy)-5,6,7,8-tetrahydroquinoline-3-carbonitrile] | > 7.00 | > 7.00 |
| N#Cc1ccc2c(c1)CCC2Oc1ccc2[nH]nc(-c3cnco3)c2c1 (single isomer, unassigned) [Example 3, enantiomer 1, 1-((3-(Oxazol-5-yl)-1H-indazol-5-yl)oxy)-2,3-dihydro-1H-indene-5-carbonitrile] | > 7.00 | > 7.00 |
| N#Cc1ccc2c(c1)CC[C@@H]2Oc1ccc2[nH]nc(-c3cnn(C(F)F)c3)c2c1 (single isomer, unassigned) [Example 4, enantiomer 1, 1-((3-(1-(Difluoromethyl)-1H-pyrazol-4-yl)-1H-indazol-5-yl)oxy)-2,3-dihydro-1H-indene-5-carbonitrile] | > 7.00 | 6.00 to 7.00 |
| N#Cc1ccc2c(c1)CC[C@@H]2Oc1ccc2[nH]nc(-c3cnoc3)c2c1 (single isomer, unassigned) [Example 5, enantiomer 1, 1-((3-(Isoxazol-4-yl)-1H-indazol-5-yl)oxy)-2,3-dihydro-1H-indene-5-carbonitrile] | > 7.00 | > 7.00 |
| N#Cc1ccc2c(c1)CCC[C@@H]2Nc1ccc2[nH]nc(-c3cnoc3)c2c1 (single isomer, unassigned) [Example 6, enantiomer 1, 5-((3-(Isoxazol-4-yl)-1H-indazol-5-yl)amino)-5,6,7,8-tetrahydronaphthalene-2-carbonitrile] | > 7.00 | > 7.00 |
| N#Cc1ccc2c(c1)CCC[C@@H]2Nc1ccc2[nH]nc(-c3cnoc3)c2c1 (single isomer, unassigned) [Example 6, enantiomer 2, 5-((3-(Isoxazol-4-yl)-1H-indazol-5-yl)amino)-5,6,7,8-tetrahydronaphthalene-2-carbonitrile] | > 7.00 | 6.00 to 7.00 |
| N#Cc1cnc2c(c1)CCC[C@@H]2Nc1ccc2[nH]nc(-c3cnoc3)c2c1 (single isomer, unassigned) [Example 7, enantiomer 1, 8-((3-(Isoxazol-4-yl)-1H-indazol-5-yl)amino)-5,6,7,8-tetrahydroquinoline-3-carbonitrile] | 6.00 to 7.00 | 5.00 to 6.00 |
| N#Cc1cnc2c(c1)CCC[C@@H]2Nc1ccc2[nH]nc(-c3cnoc3)c2c1 (single isomer, unassigned) [Example 7, enantiomer 2, 8-((3-(Isoxazol-4-yl)-1H-indazol-5-yl)amino)-5,6,7,8-tetrahydroquinoline-3-carbonitrile] | > 7.00 | > 7.00 |
| N#Cc1ccc2c(c1)CC[C@@H]2Nc1ccc2[nH]nc(-c3cnoc3)c2c1 (single isomer, unassigned) [Example 8, enantiomer 1, 1-((3-(Isoxazol-4-yl)-1H-indazol-5-yl)amino)-2,3-dihydro-1H-indene-5-carbonitrile] | > 7.00 | > 7.00 |
| N#Cc1ccc2c(c1)CC[C@@H]2Nc1ccc2[nH]nc(-c3cnco3)c2c1 (single isomer, unassigned) [Example 9, enantiomer 1, 1-((3-(Oxazol-5-yl)-1H-indazol-5-yl)amino)-2,3-dihydro-1H-indene-5-carbonitrile] | > 7.00 | > 7.00 |
| N#Cc1ccc2c(c1)CC[C@@H]2Nc1ccc2[nH]nc(-c3ccoc3)c2c1 (single isomer, unassigned) [Example 11, enantiomer 1, 1-((3-(Furan-3-yl)-1H-indazol-5-yl)amino)-2,3-dihydro-1H-indene-5-carbonitrile] | > 7.00 | 6.00 to 7.00 |
| N#Cc1ccc2c(c1)CC[C@@H]2Nc1ccc2[nH]nc(-c3cnn(C(F)F)c3)c2c1 (single isomer, unassigned) [Example 12, enantiomer 1, 1-((3-(1-(Difluoromethyl)-1H-pyrazol-4-yl)-1H-indazol-5-yl)amino)-2,3-dihydro-1H-indene-5-carbonitrile] | > 7.00 | > 7.00 |
| Cc1cc(C#N)cc2c1[C@@H](Oc1ccc3[nH]nc(-c4cnco4)c3c1)CC2 (single isomer, unassigned) [Example 14, enantiomer 1, 7-Methyl-1-((3-(oxazol-5-yl)-1H-indazol-5-yl)oxy)-2,3-dihydro-1H-indene-5-carbonitrile] | > 7.00 | > 7.00 |
| N#Cc1ccc2c(c1)CCC[C@@H]2Nc1ccc2[nH]nc(I)c2c1 (single isomer, unassigned) [Example 15, enantiomer 1, 5-((3-Iodo-1H-indazol-5-yl)amino)-5,6,7,8-tetrahydronaphthalene-2-carbonitrile] | > 7.00 | 6.00 to 7.00 |
| N#Cc1ccc2c(c1)CCC[C@@H]2Nc1ccc2[nH]nc(I)c2c1 (single isomer, unassigned) [Example 15, enantiomer 2, 5-((3-Iodo-1H-indazol-5-yl)amino)-5,6,7,8-tetrahydronaphthalene-2-carbonitrile] | 6.00 to 7.00 | 5.00 to 6.00 |
| N#Cc1cnc2c(c1)CCC[C@@H]2Oc1ccc2[nH]nc(-c3cnco3)c2c1 (single isomer, unassigned) [Example 16, enantiomer 1, 8-((3-(Oxazol-5-yl)-1H-indazol-5-yl)oxy)-5,6,7,8-tetrahydroquinoline-3-carbonitrile] | > 7.00 | > 7.00 |
| N#Cc1ccc2c(c1)CCC[C@@H]2Oc1ccc2[nH]nc(-c3cnoc3)c2c1 (single isomer, unassigned) [Example 17, enantiomer 1, 5-((3-(Isoxazol-4-yl)-1H-indazol-5-yl)oxy)-5,6,7,8-tetrahydronaphthalene-2-carbonitrile] | > 7.00 | > 7.00 |
| N#Cc1ccc2c(c1)CCC[C@@H]2Oc1ccc2[nH]nc(-c3cnoc3)c2c1 (single isomer, unassigned) [Example 17, enantiomer 2, 5-((3-(Isoxazol-4-yl)-1H-indazol-5-yl)oxy)-5,6,7,8-tetrahydronaphthalene-2-carbonitrile] | > 7.00 | 6.00 to 7.00 |
| N#Cc1ccc2c(c1)CCC[C@@H]2Oc1ccc2[nH]nc(-c3cnco3)c2c1 (single isomer, unassigned) [Example 18, enantiomer 1, 5-((3-(Oxazol-5-yl)-1H-indazol-5-yl)oxy)-5,6,7,8-tetrahydronaphthalene-2-carbonitrile] | > 7.00 | > 7.00 |
| Cc1n[nH]c2ccc(O[C@H]3CCCc4cc(C#N)ccc43)cc12 (single isomer, unassigned) [Example 19, enantiomer 1, 5-((3-Methyl-1H-indazol-5-yl)oxy)-5,6,7,8-tetrahydronaphthalene-2-carbonitrile] | 6.00 to 7.00 | 6.00 to 7.00 |
| Cc1n[nH]c2ccc(O[C@H]3CCCc4cc(C#N)ccc43)cc12 (single isomer, unassigned) [Example 19, enantiomer 2, 5-((3-Methyl-1H-indazol-5-yl)oxy)-5,6,7,8-tetrahydronaphthalene-2-carbonitrile] | > 7.00 | 6.00 to 7.00 |
| N#Cc1ccc2c(c1)CC[C@@H]2Oc1cc2c(-c3cnco3)n[nH]c2cn1 (single isomer, unassigned) [Example 20, enantiomer 1, 1-((3-(Oxazol-5-yl)-1H-pyrazolo[3,4-c]pyridin-5-yl)oxy)-2,3-dihydro-1H-indene-5-carbonitrile] | > 7.00 | > 7.00 |
| N#Cc1ccc2c(c1)CC[C@@H]2Oc1cc2c(-c3cnco3)n[nH]c2cn1 (single isomer, unassigned) [Example 20, enantiomer 2, 1-((3-(Oxazol-5-yl)-1H-pyrazolo[3,4-c]pyridin-5-yl)oxy)-2,3-dihydro-1H-indene-5-carbonitrile] | > 7.00 | 6.00 to 7.00 |
| N#Cc1ccc2c(c1)CC[C@@H]2Nc1cc2c(-c3cnco3)n[nH]c2cn1 (single isomer, unassigned) [Example 21, enantiomer 1, 1-((3-(Oxazol-5-yl)-1H-pyrazolo[3,4-c]pyridin-5-yl)amino)-2,3-dihydro-1H-indene-5-carbonitrile] | > 7.00 | > 7.00 |
| N#Cc1ccc2c(c1)CC[C@@H]2Nc1cc2c(-c3cnco3)n[nH]c2cn1 (single isomer, unassigned) [Example 21, enantiomer 2, 1-((3-(Oxazol-5-yl)-1H-pyrazolo[3,4-c]pyridin-5-yl)amino)-2,3-dihydro-1H-indene-5-carbonitrile] | > 7.00 | 6.00 to 7.00 |
| Cc1c(C#N)ccc2c1CC[C@@H]2Oc1ccc2[nH]nc(-c3cnco3)c2c1 (single isomer, unassigned) [Example 22, enantiomer 1, 4-Methyl-1-((3-(oxazol-5-yl)-1H-indazol-5-yl)oxy)-2,3-dihydro-1H-indene-5-carbonitrile] | > 7.00 | > 7.00 |
